Laboratory results: PubChem BioAssay (NCI)
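In this assay, cells in 96-well plates receive the compound at five concentrations for 48 hours. Endpoints are linearly interpolated between the surrounding concentrations. GI50 is the concentration that inhibits growth by half. TGI is the concentration that stops growth completely.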

Legend:
Assay in all cases: growth of human tumour cells (NCI), 48 h
786-0 renal = test system: 786-0 renal
A498 renal = test system: A498 renal
A549 NSCLC = test system: A549 NSCLC
ACHN renal = test system: ACHN renal
BT-549 breast = test system: BT-549 breast
CAKI-1 renal = test system: CAKI-1 renal
CCRF-CEM leukemia = test system: CCRF-CEM leukemia
COLO 205 colon = test system: COLO 205 colon
DU-145 prostate = test system: DU-145 prostate
EKVX NSCLC = test system: EKVX NSCLC
HCC-2998 colon = test system: HCC-2998 colon
HCT-116 colon = test system: HCT-116 colon
HCT-15 colon = test system: HCT-15 colon
HL-60(TB) leukemia = test system: HL-60(TB) leukemia
HOP-62 NSCLC = test system: HOP-62 NSCLC
HOP-92 NSCLC = test system: HOP-92 NSCLC
HS 578T breast = test system: HS 578T breast
HT29 colon = test system: HT29 colon
IGROV1 ovarian = test system: IGROV1 ovarian
K-562 leukemia = test system: K-562 leukemia
KM12 colon = test system: KM12 colon
LOX IMVI melanoma = test system: LOX IMVI melanoma
M14 melanoma = test system: M14 melanoma
MALME-3M melanoma = test system: MALME-3M melanoma
MCF7 breast = test system: MCF7 breast
MDA-MB-231 breast = test system: MDA-MB-231 breast
MDA-MB-435 = test system: MDA-MB-435
MDA-MB-468 breast = test system: MDA-MB-468 breast
MOLT-4 leukemia = test system: MOLT-4 leukemia
NCI-H226 lung = test system: NCI-H226 lung
NCI-H23 lung = test system: NCI-H23 lung
NCI-H460 lung = test system: NCI-H460 lung
NCI-H522 lung = test system: NCI-H522 lung
NCI/ADR-RES ovarian = test system: NCI/ADR-RES ovarian
OVCAR-3 ovarian = test system: OVCAR-3 ovarian
OVCAR-4 ovarian = test system: OVCAR-4 ovarian
OVCAR-5 ovarian = test system: OVCAR-5 ovarian
OVCAR-8 ovarian = test system: OVCAR-8 ovarian
PC-3 prostate = test system: PC-3 prostate
RPMI-8226 leukemia = test system: RPMI-8226 leukemia
RXF 393 renal = test system: RXF 393 renal
SF-268 CNS = test system: SF-268 CNS
SF-295 CNS = test system: SF-295 CNS
SF-539 CNS = test system: SF-539 CNS
SK-MEL-2 melanoma = test system: SK-MEL-2 melanoma
SK-MEL-28 melanoma = test system: SK-MEL-28 melanoma
SK-MEL-5 melanoma = test system: SK-MEL-5 melanoma
SK-OV-3 ovarian = test system: SK-OV-3 ovarian
SN12C renal = test system: SN12C renal
SNB-19 CNS = test system: SNB-19 CNS
SNB-75 CNS = test system: SNB-75 CNS
SR leukemia = test system: SR leukemia
SW-620 colon = test system: SW-620 colon
T-47D breast = test system: T-47D breast
TK-10 renal = test system: TK-10 renal
U251 CNS = test system: U251 CNS
UACC-257 melanoma = test system: UACC-257 melanoma
UACC-62 melanoma = test system: UACC-62 melanoma
UO-31 renal = test system: UO-31 renal

**Q.** What does the source list for `CC(=C(c1ccc(OCCN2CCCCCC2)cc1)c1ccc(OCCN2CCCCCC2)cc1)c1ccc(Cl)cc1`?
**A.** GI50 (786-0 renal): 3.62 µM; TGI (786-0 renal): 10.5 µM; GI50 (A498 renal): 5.47 µM; TGI (A498 renal): 11 µM; GI50 (A549 NSCLC): 4.64 µM; TGI (A549 NSCLC): 12.1 µM; GI50 (ACHN renal): 5.9 µM; TGI (ACHN renal): 11.2 µM; GI50 (BT-549 breast): 7.09 µM; TGI (BT-549 breast): 13.3 µM; GI50 (CAKI-1 renal): 4.69 µM; TGI (CAKI-1 renal): 9.75 µM; GI50 (CCRF-CEM leukemia): 1.11 µM; TGI (CCRF-CEM leukemia): 3.88 µM; GI50 (COLO 205 colon): 0.813 µM; TGI (COLO 205 colon): 1.62 µM; GI50 (DU-145 prostate): 5.19 µM; TGI (DU-145 prostate): 10.4 µM; GI50 (EKVX NSCLC): 5.77 µM; TGI (EKVX NSCLC): 11.5 µM; GI50 (HCC-2998 colon): 1.05 µM; TGI (HCC-2998 colon): 3.86 µM; GI50 (HCT-116 colon): 1.49 µM; TGI (HCT-116 colon): 6.22 µM; GI50 (HCT-15 colon): 1.48 µM; TGI (HCT-15 colon): 5.7 µM; GI50 (HL-60(TB) leukemia): 1.32 µM; TGI (HL-60(TB) leukemia): 9.39 µM; GI50 (HOP-62 NSCLC): 5.77 µM; TGI (HOP-62 NSCLC): 11.6 µM; GI50 (HOP-92 NSCLC): 2.01 µM; TGI (HOP-92 NSCLC): 8.1 µM; GI50 (HS 578T breast): 5.25 µM; TGI (HS 578T breast): 13.3 µM; GI50 (HT29 colon): 0.942 µM; TGI (HT29 colon): 2.55 µM; GI50 (IGROV1 ovarian): 5.09 µM; TGI (IGROV1 ovarian): 10.3 µM; GI50 (K-562 leukemia): 0.908 µM; TGI (K-562 leukemia): 40.7 µM; GI50 (KM12 colon): 4.56 µM; TGI (KM12 colon): 10.1 µM; GI50 (LOX IMVI melanoma): 0.776 µM; TGI (LOX IMVI melanoma): 1.61 µM; GI50 (M14 melanoma): 0.838 µM; TGI (M14 melanoma): 1.85 µM; GI50 (MALME-3M melanoma): 0.745 µM; TGI (MALME-3M melanoma): 1.66 µM; GI50 (MCF7 breast): 0.654 µM; TGI (MCF7 breast): 1.77 µM; GI50 (MDA-MB-231 breast): 4.19 µM; TGI (MDA-MB-231 breast): 8.99 µM; GI50 (MDA-MB-435): 0.807 µM; TGI (MDA-MB-435): 1.9 µM; GI50 (MDA-MB-468 breast): 1.3 µM; TGI (MDA-MB-468 breast): 6.08 µM; GI50 (MOLT-4 leukemia): 1.08 µM; TGI (MOLT-4 leukemia): 3.33 µM; GI50 (NCI-H226 lung): 5.96 µM; TGI (NCI-H226 lung): 12.6 µM; GI50 (NCI-H23 lung): 5.58 µM; TGI (NCI-H23 lung): 11.1 µM; GI50 (NCI-H460 lung): 1.37 µM; TGI (NCI-H460 lung): 5.14 µM; GI50 (NCI-H522 lung): 4.84 µM; TGI (NCI-H522 lung): 10.1 µM; GI50 (NCI/ADR-RES ovarian): 5.82 µM; TGI (NCI/ADR-RES ovarian): 11.6 µM; GI50 (OVCAR-3 ovarian): 2.83 µM; TGI (OVCAR-3 ovarian): 8.44 µM; GI50 (OVCAR-4 ovarian): 5.76 µM; TGI (OVCAR-4 ovarian): 11.7 µM; GI50 (OVCAR-5 ovarian): 5 µM; TGI (OVCAR-5 ovarian): 10.1 µM; GI50 (OVCAR-8 ovarian): 7.95 µM; TGI (OVCAR-8 ovarian): 18.5 µM; GI50 (PC-3 prostate): 4.53 µM; TGI (PC-3 prostate): 10 µM; GI50 (RPMI-8226 leukemia): 1.29 µM; TGI (RPMI-8226 leukemia): 4.7 µM; GI50 (RXF 393 renal): 1.76 µM; TGI (RXF 393 renal): 7.23 µM; GI50 (SF-268 CNS): 5.44 µM; TGI (SF-268 CNS): 11.4 µM; GI50 (SF-295 CNS): 1.97 µM; TGI (SF-295 CNS): 7.2 µM; GI50 (SF-539 CNS): 4.54 µM; TGI (SF-539 CNS): 9.49 µM; GI50 (SK-MEL-2 melanoma): 6.88 µM; TGI (SK-MEL-2 melanoma): 12.6 µM; GI50 (SK-MEL-28 melanoma): 0.682 µM; TGI (SK-MEL-28 melanoma): 1.29 µM; GI50 (SK-MEL-5 melanoma): 2.84 µM; TGI (SK-MEL-5 melanoma): 8.15 µM; GI50 (SK-OV-3 ovarian): 6.46 µM; TGI (SK-OV-3 ovarian): 12.1 µM; GI50 (SN12C renal): 5.38 µM; TGI (SN12C renal): 10.9 µM; GI50 (SNB-19 CNS): 6.06 µM; TGI (SNB-19 CNS): 11.5 µM; GI50 (SNB-75 CNS): 4.78 µM; TGI (SNB-75 CNS): 9.96 µM; GI50 (SR leukemia): 0.963 µM; TGI (SR leukemia): 3.33 µM; GI50 (SW-620 colon): 0.757 µM; TGI (SW-620 colon): 1.75 µM; GI50 (T-47D breast): 2.89 µM; TGI (T-47D breast): 9.27 µM; GI50 (TK-10 renal): 6.19 µM; TGI (TK-10 renal): 11.7 µM; GI50 (U251 CNS): 5.31 µM; TGI (U251 CNS): 11.3 µM; GI50 (UACC-257 melanoma): 1.44 µM; TGI (UACC-257 melanoma): 5.62 µM; GI50 (UACC-62 melanoma): 1.09 µM; TGI (UACC-62 melanoma): 3.57 µM; GI50 (UO-31 renal): 4.66 µM; TGI (UO-31 renal): 9.6 µM
